{"source": "paper PMC8422652", "about": "“Neuromedin U induces an invasive phenotype in CRC cells expressing the NMUR2 receptor” (Journal of Experimental & Clinical Cancer Research : CR, 2021)", "key": {"[1]": {"tested_on": "NMUR1 and NMUR2 expression in CRC cells", "test": "5-aza-CdR treatment for NMUR1 and NMUR2 expression analysis (real-time PCR)", "type": "cell-based, human", "settings": "50 µM for 96 h (4 days), n ≥ 4", "protocol": "Total RNA was isolated with the ReliaPrep™ RNA Cell Miniprep System (Promega, Madison, WI, USA). The quality control of isolated RNA was performed using the 2100 Bioanalyser (Agilent Technologies, Palo Alto, CA, USA) according to the manufacturer’s instructions. 1 µg of the isolated total RNA (RIN ≥ 8) was reverse transcribed using the High Capacity cDNA Reverse Transcription Kit (Applied Biosystems, CA, USA) according to the manufacturer’s instructions. Real time PCR for human NMU, NMUR1, NMUR2, NTSR1, GHSR1b, GAPDH and β-actin was performed using FastStart Essential DNA Probes Master or FastStart Essential DNA Green Master (Roche, Basel, Switzerland). Amplification was performed on a Roche LightCycler 96. GADPH and/or β-actin mRNA transcripts were used as internal control genes. The amount of target in the various samples was calculated using the 2^−ΔCt relative quantification method with DataAssist v.3.01.\nCells were seeded on 6-well plates (Corning, NY, USA). After cells attachment (6 h), DNA methyltransferase inhibitor, 5-aza-2’-deoxycytidine (5-aza-CdR) (Sigma-Aldrich) was added at final concentration of 50 µM. Medium containing 5-aza-CdR was refreshed every 24 h. After 96 h, total RNA was isolated and analysed. The real-time PCR products were analysed on a 2 % agarose gel with ethidium bromide (Sigma-Aldrich) and visualized."}, "[2]": {"tested_on": "NMUR2", "settings": "NMUR2 agonist, cited from earlier work", "source_text": "(§1) NMURs agonists, which are NMU-8 analogues, were synthesized with a HPLC purity > 98 %, as described in literature."}, "[3]": {"tested_on": "ERK1/2 in Caco-2 cells", "test": "ERK1/2 activation analysis (immunoblot) in Caco-2 cells", "type": "cell-based, human", "settings": "SBL-NMU-17 250 nM, immunoblot pERK1/2 normalised to ERK1/2 and α-tubulin, n = 5 (NMU-9 n = 1)", "protocol": "(§2) CRC cells were lysed with RIPA buffer (100 mM TRIS-HCl, pH 7.5, 300 mM NaCl, 0.2 % SDS with 1 % IGEPAL CA-630 and the Halt™ Protease Inhibitor Cocktail (Thermo Fisher Scientific)) with subsequent centrifugation (18,000 x g, 4 °C, 20 min). Total protein concentration in lysate was quantified by BCA method (Pierce BCA Protein Assay; Thermo Fisher Scientific). Samples were loaded and separated by SDS-PAGE (Mini-PROTEAN TGX Stain-Free Gels; Bio-Rad Laboratories, CA, USA) and transferred onto nitrocellulose membranes (Bio-Rad Laboratories). NMU protein was detected with rabbit anti-NMU antibody (Genetex, CA, USA), for ERK1/2 kinases analysis mouse anti-ERK1/2 (Santa Cruz Biotechnology, USA) and rabbit anti-pERK1/2 antibodies (Invitrogen) were used. In EVs (extracellular vesicles) purity analysis we used rabbit antibodies anti-GM130, anti-annexin V and anti-flotilin-1 (Cell Signaling Technologies, Danvers, MA, USA). Proteins used as loading controls were detected by mouse anti-β-actin, mouse anti-α-tubulin or rabbit anti-GAPDH antibody (Abcam, Cambridge, GB). We used secondary HRP-conjugated goat anti-mouse (Santa Cruz Biotechnology) or anti-rabbit antibodies (Invitrogen). The signal was detected by chemiluminescence (Thermo Fisher Scientific) with Kodak BioMax Light Film from Eastman Kodak (NY, USA). […]"}, "[4]": {"tested_on": "HT29 cells", "test": "Ca2+ mobilization assay (fluo-4) in HT29 cells", "type": "cell-based, human", "protocol": "(§3) Cells grown on poly-lysine-coated 48-well plates (Corning) for 24 h were stained for 15 min at 37 °C with Hoechst 33342 (Invitrogen). PBS rinsed cells were loaded with Fluo-4 AM (5 µM; Invitrogen) for 45–60 min at 37 °C in the presence of 0.5 % of pluronic-127 in the incubation medium (growth medium without FBS and PS, supplemented with 0.1 % BSA). Cells were rinsed with warm PBS and bathed in a final volume of 300 µl of incubation medium. Images were acquired using AxioVert fluorescence inverted microscope (Zeiss, Germany) with the use of 10 x dry objective (NA 0.3). First, an image of Hoechst 33342-stained nuclei was acquired. Next, a time-lapse image sequence in green channel (Fluo-4) was recorded with exposure time of 500 ms in the same field of view. […] For analysis of CRC cells we chose minimal concertation that induce significant fluorescence change. NMU-9 (1 µM) and NMUR2 agonist (200 nM ~ 5 times the EC50 determined in literature). […] Quantification of the effects is described in Additional Files 1 and 3. […]\n(§4) Quantification of the calcium mobilisation were performed with the use of FIJI image processing package***. […] Fluorescence intensity change over time was measured in each ROI in corresponding movie sequence of Fluo-4 stained cells. […] Such background-corrected values of fluorescence intensity were used for further calculations. […]"}, "[5]": {"test": "Half-life in human plasma (plasma stability)", "type": "in vitro ADME", "source_text": "NMURs agonists, which are NMU-8 analogues, were synthesized with a HPLC purity > 98 %, as described in literature. […] All peptides were used as solutions in water. Peptide sequences and stability data are available in the Table S1 (Additional File 1)."}, "[6]": {"tested_on": "ERK1/2 in HEK293 R2_HA cells", "test": "ERK1/2 activation analysis (immunoblot) in HEK293 R2_HA cells", "type": "cell-based, human", "settings": "HEK293 R2_HA clone, n = 1", "protocol": "as §2, with “In EVs (extracellular vesicles) purity analysis we used rabbit antibodies anti-GM130, anti-annexin V and anti-flotilin-1 (Cell Signaling Technologies, Danvers, MA, USA).” left out, “We used secondary HRP-conjugated goat anti-mouse (Santa Cruz Biotechnology) or anti-rabbit antibodies (Invitrogen).” left out\nFig. S1 HEK293 R2_HA clones with exogenous NMUR2 overexpression. (A) NMUR2 mRNA levels were analysed in HT29 with endogenous expression of NMUR2 and compared to those in HEK293 R2_HA clones with exogenous expression of NMUR2 (**p ≤ 0,01; n ≥ 3). […] The changes in fluorescence were detected and analysed as described in the Methods section. […]"}, "[7]": {"tested_on": "HEK293 R2_HA cell line overexpressing NMUR2", "test": "Ca2+ mobilization assay (fluo-4) in HEK293 R2_HA cells", "type": "cell-based, human", "protocol": "as §3, §4"}, "[8]": {"tested_on": "NMUR1", "settings": "NMUR1 agonist, cited from earlier work", "source_text": "as §1"}, "[9]": {"tested_on": "HCT116 cells", "test": "Ca2+ mobilization assay (fluo-4) in HCT116 cells", "type": "cell-based, human", "settings": "1 µM NMU-9, 40 nM NMUR1 agonist, percentage of cells above threshold, n = 5", "protocol": "as §3, with “change.” for “change. NMU-9 (1 µM) and NMUR2 agonist (200 nM ~ 5 times the EC50 determined in literature).”\nQuantification of the calcium mobilisation were performed with the use of FIJI image processing package***. […] Fluorescence intensity change over time was measured in each ROI in corresponding movie sequence of Fluo-4 stained cells. To acquire the change of background fluorescence over time in each movie sequence, additional ROIs were created by the analyst manually in the sites devoid of cells. […]"}, "[10]": {"settings": "cited from earlier work", "source_text": "Supplement 13046_2021_2073_MOESM1_ESM.docx, table 1: Table S1. […] NMURs agonists, which are NMU-8 analogues, were synthesized with a HPLC purity > 98 %, as described in literature."}, "[11]": {"settings": "species not given; cited from earlier work", "source_text": "Physiologically, NMU has been predominantly found in the central nervous system and in the periphery. In the gastrointestinal tract, locally administered NMU leads to smooth muscle contraction, regulating intestinal motility and regional blood flow, but epithelial cells are not the source of the peptide in the gastrointestinal tract under normal conditions. Human neuromedin U synthesis is tightly regulated at the genetic, epigenetic, transcriptional and post-transcriptional levels, regulating access to cellular microenvironments. Peptide precursors can be produced from three ..."}}, "note": "Read-outs that look alike come from different tables or passages of the source. Square brackets hold non-standard residues; d marks the D form. Ends that are not written are not given here. Peptide text beside a SMILES is read from it. Dmt = Cc1cc(O)cc(C)c1C[C@H](N)C(=O)O; Tic = O=C(O)[C@@H]1Cc2ccccc2CN1"}
{"compound": "Nc1ncn([C@H]2C[C@H](O)[C@@H](CO)O2)c(=O)n1", "note": "[5-aza-CdR, 5-aza-2’-deoxycytidine]", "values": [{"measurement": "NMUR1 and NMUR2 expression after DNA demethylation", "setting": "[1]", "result": "regulated by promoter methylation"}]}
{"compound": "CC(C)C[C@H](NC(=O)[C@H](Cc1ccccc1)NC(=O)[C@@H](N)Cc1ccc(O)cc1)C(=O)N[C@@H](Cc1ccccc1)C(=O)N[C@@H](CCCNC(=N)N)C(=O)N1Cc2ccccc2C[C@H]1C(=O)N[C@@H](CCCNC(=N)N)C(=O)N[C@@H](CC(N)=O)C(N)=O", "note": "[SBL-NMU-17] (H-YFLFR[Tic]RN-NH2)", "values": [{"measurement": "EC50", "setting": "[2]; IP3 pathway activation data", "result": 45.5, "unit": "nM"}, {"measurement": "IC50", "setting": "[2]; competitive binding assay", "result": 13, "unit": "nM"}, {"measurement": "Phosphorylation (activation) of ERK1/2 kinases", "setting": "[3]", "result": "induced ERK1/2 kinase activation"}, {"measurement": "Minimal concentration that induces significant fluorescence change (Ca2+ mobilisation)", "setting": "[4]; CRC cells, tested 150, 200, 300 nM", "result": 200, "unit": "nM"}, {"measurement": "Change in fluo-4 fluorescence intensity caused by Ca2+ mobilisation", "setting": "[4]; HT29 cells, 1 µM NMU-9, 200 nM NMUR2 agonist, percentage of cells above threshold, n = 5", "result": "significantly responded"}, {"measurement": "Metabolite observed in plasma stability studies", "setting": "[5]; human plasma, both peptides yielded a 7-amino acid long metabolite", "result": "only Tyr was lost"}, {"measurement": "ERK1/2 phosphorylation", "setting": "[6]", "result": "observed ERK1/2 phosphorylation"}, {"measurement": "Minimal effective concentration (Ca2+ influx)", "setting": "[7]; HEK293 R2_HA cells loaded with fluo-4", "result": 150, "unit": "nM"}, {"measurement": "Calcium mobilisation (fluo-4)", "setting": "[7]; HEK293 R2_HA, NMU-9 0.7 µM, SBL-NMU-17 150 nM, n = 3", "result": "significant calcium mobilisation"}]}
{"compound": "CC(=O)N[C@@H](Cc1ccc(O)cc1)C(=O)N[C@@H](Cc1ccccc1)C(=O)N[C@@H](CC(C)C)C(=O)N[C@@H](Cc1c(C)cc(O)cc1C)C(=O)N[C@@H](CCCNC(=N)N)C(=O)N1CCC[C@H]1C(=O)N[C@@H](CCCNC(=N)N)C(=O)N[C@@H](CC(N)=O)C(N)=O", "note": "[SBL-NMU-21] (Ac-YFL[Dmt]RPRN-NH2)", "values": [{"measurement": "EC50", "setting": "[8]; calculated based on the IP3 pathway activation data", "result": 7.7, "unit": "nM"}, {"measurement": "IC50", "setting": "[8]; calculated based on the competitive binding assay", "result": 0.36, "unit": "nM"}, {"measurement": "Change in fluo-4 fluorescence intensity caused by Ca2+ mobilisation", "setting": "[9]", "result": "did not detect statistically significant changes"}, {"measurement": "Half-life in human plasma (t1/2)", "setting": "[10]", "result": 4.225, "unit": "h"}]}
{"compound": "GYFLFRPRN-NH2 [NMU-9]", "values": [{"measurement": "Metabolite observed in plasma stability studies", "setting": "[5]", "result": "the peptide devoid of the Gly-Tyr segment was quickly observed"}, {"measurement": "Half-life in human plasma (t1/2)", "setting": "[5]; human", "result": "4.60 ± 0.4", "unit": "min"}]}
{"compound": "NMU: Native neuromedin U peptide, secretory neuropeptide with amidated C-terminal pentapeptide (FRVDEEFQSPFASQSRGYFLFRPRN-NH2; UniProt P48645 142-166, looked up)", "values": [{"measurement": "estimated half-life in plasma", "setting": "[11]", "result": "less than 5 min"}]}
